Legend:
HBL-100 cells = assay: Anoikis assay on poly-HEMA coated plates, annexin-V-FITC/PI; assay type: cell-based, human
Source text: The human breast cell line HBL-100, transformed by the SV40 virus large T antigen with epithelial like morphology, was used to investigate the importance of the huntingtin serine residue at position 421 with respect to phosphorylation towards anoikis resistant, anchorage independent cell growth. HBL-100 cells were transfected with a 3949-15wt huntingtin vector construct, or a similar vector in which the normal serine at position 421 was mutated to an alanine residue. This mutation prevents phosphorylation from occurring at that site, which is presumed to be mediated by the kinase AKT/PKB. Cells were cultured in DMEM with 5% serum for 24 hours either on untreated tissue culture plastic or on poly-HEMA-coated plastic plates. Cells were harvested, counted and viability was assessed via annexin-V-FITC and propidium iodide (PI) staining.
HBL-100 cells were transiently transfected with a FLAG-tagged 3949-15wt htt, or a FLAG-tagged (S-A) unphosphorylatable mutant htt. Wild-type cells were also treated with LY294002, a specific PI-3 kinase inhibitor, at a concentration of 10 μM, to determine whether inhibition of kinase function could abrogate the induction of anoikis. Western blot analysis confirming the expression of both full length and 3949 huntingtin in the FLAG-tagged constructs (FIG. 26B). The presence of endogenous huntingtin in the parental cells is also shown. […]

AKT = AKT (Homo sapiens, UniProt P31749); assay: In vitro kinase reaction, phosphorylation of htt by AKT (autoradiography); assay type: biochemical; conditions: S421A-mutant N-terminal one-third of htt as substrate, compared with wild-type, purified recombinant active AKT
Chain of AKT (P31749 whole entry): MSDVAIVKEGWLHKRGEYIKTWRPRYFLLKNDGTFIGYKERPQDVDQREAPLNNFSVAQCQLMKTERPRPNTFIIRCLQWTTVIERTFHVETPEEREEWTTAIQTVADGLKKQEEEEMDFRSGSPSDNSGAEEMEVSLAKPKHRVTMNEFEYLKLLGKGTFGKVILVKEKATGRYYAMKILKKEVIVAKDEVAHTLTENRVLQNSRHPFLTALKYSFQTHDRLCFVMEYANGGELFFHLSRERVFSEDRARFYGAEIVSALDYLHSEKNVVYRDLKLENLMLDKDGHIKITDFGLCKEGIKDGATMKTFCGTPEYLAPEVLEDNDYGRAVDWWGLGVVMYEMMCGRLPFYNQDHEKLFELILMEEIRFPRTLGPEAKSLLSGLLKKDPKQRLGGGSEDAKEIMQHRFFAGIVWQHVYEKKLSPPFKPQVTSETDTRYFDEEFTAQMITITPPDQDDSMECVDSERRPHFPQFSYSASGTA
Source text: Serine 421 of huntingtin can be phosphorylated by purified recombinant active AKT in vitro (FIG. 18). Immunoprecipitated recombinant protein containing the N-terminal one-third of htt was used as a substrate for AKT. Phosphorylation was detected by autoradiography since radiolabelled ATP was a component of the in vitro kinase reaction. When serine 421 was mutated to alanine (S421A), a non-phosphorylatable amino acid, 64% of the phosphorylation signal on huntingtin was ablated. […] Other sites for AKT phosphorylation are threonines 1024 and 2068.

spermatogenic cells = assay: Testicular histology, ultrastructure and TUNEL labeling; assay type: in vivo; conditions: endogenous htt expression increased to 100% of normal levels
Procedure: Testes were removed from anesthetized animals and immediately placed in fixative (1.5% paraformaldehyde, 1.5% glutaraldehyde, 0.1 M Na cacodylate, pH 7.3). The capsules were nicked with a scalpel and then the organs left to fix for approximately 1 hour. The testes were cut into small pieces and fixed for an additional hour. The pieces were washed with buffer, post-fixed in buffered 1% OSO4 on ice for 1 hour, washed with dH2O, and stained en bloc in 1% aqueous uranyl acetate. The samples were washed with dH2O, dehydrated through a graded concentration series of ethyl alcohols, and then embedded in JEMBED™812 (J. B. EM Services Inc., Point-Claire, Quebec).
For histological analysis, thick sections (1 μm) were stained with toluidine blue and evaluated on a Zeiss Axiophot microscope. For ultrastructural analysis, thin sections were cut on an ultramicrotome, stained with lead citrate and uranyl acetate, and then viewed and photographed on a Philips 300 electron microscope operated at 60 kV.
TUNEL™ labeling (Boehringer Mannheim) was performed using standard techniques on frozen sections of testes that were lightly immersion fixed in 3% paraformaldehyde. […]
The cellular effect of the htt expression was determined by analyzing the testicular morphology of YAC rescued htt knockout mice. […]
TUNEL™ staining was used to quantitate apoptosis in the YAC rescued transgenic mice. […]

[1] = system: immunoprecipitated recombinant protein containing the N-terminal one-third of htt
Chain of immunoprecipitated recombinant protein containing the N-terminal one-third of htt (chain, as listed by the source): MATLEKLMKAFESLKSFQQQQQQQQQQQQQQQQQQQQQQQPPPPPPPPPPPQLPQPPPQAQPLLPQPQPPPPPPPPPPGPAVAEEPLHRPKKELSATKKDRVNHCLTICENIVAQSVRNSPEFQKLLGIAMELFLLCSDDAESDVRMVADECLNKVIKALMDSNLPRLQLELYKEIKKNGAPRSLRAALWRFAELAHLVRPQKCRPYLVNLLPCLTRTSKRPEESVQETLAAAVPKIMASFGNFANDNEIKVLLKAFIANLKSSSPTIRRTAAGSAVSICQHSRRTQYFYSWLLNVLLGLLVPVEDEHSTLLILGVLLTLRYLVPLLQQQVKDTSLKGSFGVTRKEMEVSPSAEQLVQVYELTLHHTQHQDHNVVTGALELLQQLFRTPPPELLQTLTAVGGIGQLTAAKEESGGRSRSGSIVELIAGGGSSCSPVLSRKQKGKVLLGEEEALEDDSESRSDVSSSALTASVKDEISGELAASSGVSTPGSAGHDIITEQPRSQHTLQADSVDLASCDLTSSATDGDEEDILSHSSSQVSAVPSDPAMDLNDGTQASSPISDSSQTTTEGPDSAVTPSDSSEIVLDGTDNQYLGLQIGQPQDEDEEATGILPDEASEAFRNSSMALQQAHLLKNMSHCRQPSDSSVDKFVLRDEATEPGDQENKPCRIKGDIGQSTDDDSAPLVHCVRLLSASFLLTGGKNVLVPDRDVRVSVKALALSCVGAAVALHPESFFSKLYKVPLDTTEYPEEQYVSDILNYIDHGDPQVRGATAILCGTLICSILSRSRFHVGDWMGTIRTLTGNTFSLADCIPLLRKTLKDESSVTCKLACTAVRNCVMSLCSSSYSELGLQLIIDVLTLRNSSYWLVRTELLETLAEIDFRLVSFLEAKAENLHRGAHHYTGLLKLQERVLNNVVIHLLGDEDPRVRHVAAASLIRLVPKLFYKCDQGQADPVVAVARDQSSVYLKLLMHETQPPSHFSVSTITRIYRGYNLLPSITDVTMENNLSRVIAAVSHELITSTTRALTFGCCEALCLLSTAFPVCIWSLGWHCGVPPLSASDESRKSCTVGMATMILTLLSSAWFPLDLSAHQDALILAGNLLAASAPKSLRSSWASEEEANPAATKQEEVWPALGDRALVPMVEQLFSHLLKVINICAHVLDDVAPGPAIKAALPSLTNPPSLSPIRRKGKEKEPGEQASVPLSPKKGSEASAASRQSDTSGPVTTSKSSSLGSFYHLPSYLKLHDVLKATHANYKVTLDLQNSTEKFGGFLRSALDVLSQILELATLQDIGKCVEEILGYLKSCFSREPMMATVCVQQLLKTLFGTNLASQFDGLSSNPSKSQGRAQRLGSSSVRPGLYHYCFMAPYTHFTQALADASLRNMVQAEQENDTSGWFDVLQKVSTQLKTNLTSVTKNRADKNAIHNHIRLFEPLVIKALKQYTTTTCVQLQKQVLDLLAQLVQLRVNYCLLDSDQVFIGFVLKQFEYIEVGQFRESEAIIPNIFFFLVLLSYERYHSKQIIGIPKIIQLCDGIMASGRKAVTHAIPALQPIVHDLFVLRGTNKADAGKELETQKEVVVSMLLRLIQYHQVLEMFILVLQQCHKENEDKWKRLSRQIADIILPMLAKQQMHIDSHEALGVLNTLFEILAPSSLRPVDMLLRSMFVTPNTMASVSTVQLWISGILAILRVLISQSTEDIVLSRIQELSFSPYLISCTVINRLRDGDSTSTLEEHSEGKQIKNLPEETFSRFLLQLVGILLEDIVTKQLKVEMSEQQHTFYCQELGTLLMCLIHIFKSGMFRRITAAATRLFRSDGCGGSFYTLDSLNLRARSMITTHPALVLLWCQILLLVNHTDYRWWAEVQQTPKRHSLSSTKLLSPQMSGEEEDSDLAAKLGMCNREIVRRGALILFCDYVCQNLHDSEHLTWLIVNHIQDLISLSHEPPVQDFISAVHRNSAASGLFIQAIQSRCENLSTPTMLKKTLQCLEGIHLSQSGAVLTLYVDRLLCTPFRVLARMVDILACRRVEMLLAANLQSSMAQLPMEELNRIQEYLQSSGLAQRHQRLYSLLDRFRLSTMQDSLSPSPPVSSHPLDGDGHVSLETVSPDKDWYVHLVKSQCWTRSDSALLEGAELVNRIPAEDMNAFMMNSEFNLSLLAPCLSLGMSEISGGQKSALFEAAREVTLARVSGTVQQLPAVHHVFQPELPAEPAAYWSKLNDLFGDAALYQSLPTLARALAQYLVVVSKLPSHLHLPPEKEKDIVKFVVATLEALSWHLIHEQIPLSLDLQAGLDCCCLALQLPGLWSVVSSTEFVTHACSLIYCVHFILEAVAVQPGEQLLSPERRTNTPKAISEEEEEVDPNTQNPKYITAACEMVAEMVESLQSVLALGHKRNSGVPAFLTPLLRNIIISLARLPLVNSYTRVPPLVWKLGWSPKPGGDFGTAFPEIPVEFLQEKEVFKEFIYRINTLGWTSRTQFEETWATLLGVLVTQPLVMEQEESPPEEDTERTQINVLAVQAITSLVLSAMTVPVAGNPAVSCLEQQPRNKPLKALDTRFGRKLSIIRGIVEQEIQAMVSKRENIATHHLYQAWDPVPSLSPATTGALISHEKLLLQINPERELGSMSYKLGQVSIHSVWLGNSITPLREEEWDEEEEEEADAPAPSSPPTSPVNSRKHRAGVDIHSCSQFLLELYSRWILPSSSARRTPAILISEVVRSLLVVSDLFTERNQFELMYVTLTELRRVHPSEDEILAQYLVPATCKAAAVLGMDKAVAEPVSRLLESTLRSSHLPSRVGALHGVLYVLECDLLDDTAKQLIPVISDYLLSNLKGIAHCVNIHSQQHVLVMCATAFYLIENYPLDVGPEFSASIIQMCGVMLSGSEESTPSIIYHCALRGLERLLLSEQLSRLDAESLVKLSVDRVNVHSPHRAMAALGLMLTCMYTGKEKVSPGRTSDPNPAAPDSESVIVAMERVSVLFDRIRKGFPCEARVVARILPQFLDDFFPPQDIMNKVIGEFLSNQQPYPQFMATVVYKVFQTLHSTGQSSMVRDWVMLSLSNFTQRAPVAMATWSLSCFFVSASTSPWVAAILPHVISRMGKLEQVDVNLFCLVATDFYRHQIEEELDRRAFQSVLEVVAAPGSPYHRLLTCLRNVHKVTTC

[2] = system: recombinant N-terminal one-third of htt with serine 421 mutated to alanine (S421A)
Chain of recombinant N-terminal one-third of htt with serine 421 mutated to alanine (S421A) (chain, as listed by the source S421A): as the sequence (chain, as listed by the source) above, with S421A counted along it

NT2 cells [3] = assay: Mutant htt (HD138)-induced cell death, apoptotic morphology scoring; assay type: cell-based, human; conditions: NT2 cells co-transfected with HD138, tamoxifen stimulus, vs pyruvate kinase control, p=0.002
Procedure: Mutant htt protein (HD138) was co-transfected with control protein, pyruvate kinase (PK), or with htt C-terminus (C-ter) into NT2 cells (a human neuronal precursor cell line) at 40% density using lipofectamine (GibcoBRL), and cell death in response to tamoxifen stimulus was measured. Cell death was quantified in NT2 cells by co-transfection of the expression constructs with a plasmid containing the LacZ gene at a 4:1 ratio, and the cells were stained for β-galactosidase activity at 24 hours post-transfection using standard procedures. The survival effect of the htt protein was assessed by incubating transfected cells with the pro-apoptotic drug tamoxifen for 4 hrs at various concentrations. An apoptotic morphology was scored as blue-staining cells that were rounded up, blebbed and condensed, which were clearly distinguished from viable cells that were flat and had neurite-like extensions. The cell death data was analyzed for statistical significance using one-way ANOVA and Newman-Keuls post-comparison tests.

[4] = system: truncated mutant htt with 128 CAG repeats in HEK 293T cells; assay: Mutant htt aggregate formation, immunofluorescence; assay type: cell-based, human; conditions: vs LacZ control
Procedure: The C-terminus of htt was co-transfected with mutant htt and aggregate formation was induced with tamoxifen or HIP-1 expression as described herein. HEK 293T cells were transfected with truncated mutant htt with 128 CAG repeats and processed for immunofluorescence by growing cells on glass coverslips and transfecting at 30% confluency using a standard calcium phosphate protocol. At 48 hours post-transfection, the cells were treated with 35 μM tamoxifen (Sigma) for 1 hour to induce aggregate formation, then processed for immunofluorescence. The cells were fixed in 4% paraformaldehyde/PBS, permeabilised in 0.5% Triton X-100/PBS for 5 min, then incubated with anti-htt antibody MAB2166 (Chemicon) (1:2500 dilution) diluted in 0.4% BSA/PBS. Secondary antibodies conjugated to FITC (Jackson Laboratories) were used at 1:600-1:800 dilutions, and DAPI (4′,6′-diamindino-2-phenylindole, Sigma) was used as a nuclear counter-stain. Appropriate control experiments were performed to determine the specificity of the antibodies, including secondary antibody only and mock transfected cells. The cells were viewed with a Zeiss (Axioscope) microscope, digitally captured with a CCD camera (Princeton Instrument Inc.) and the images were colourised and overlapped using the Eclipse (Empix Imaging Inc.) software program. […]

HEK 293T cells = assay: MTT (WST-1) cell viability assay, tamoxifen-induced cell death; assay type: cell-based, human; conditions: transfected HEK 293T cells, tamoxifen 4 hours, compared with LacZ control
Procedure: The survival effect of htt was measured in vitro using the MTT assay, in which a reduction in mitochondrial viability is indicative of cell death. Human embryonic kidney (HEK) 293T cells were seeded at a density of 5×10^4 cells into 96-well plates and transfected with 0.1 μg htt or LacZ DNA using a standard calcium phosphate protocol (Hackam et al. (1998) J Cell Biol. 141: 1097-105). Transfected cells in 96-well plates were treated at 48 hours post-transfection with a various concentrations of tamoxifen, a cell permeable compound that leads to caspase activation and cell death, for 4 hours. Cell viability was measured, […], by incubating the cells for 2 hours in a 1:10 dilution of WST-1 reagent (Boehringer Mannheim) and release of formazan from mitochondria was quantified by the MTT assay at 450 nm using an ELISA plate reader (Dynatech Laboratories). Mock transfected, vector only and LacZ transfected cells served as controls for transfection-related toxicity. Statistical analyses of the cell death data were performed using one-way ANOVA and Newman-Keuls post-comparison tests.

NT2 cells [5] = assay: HIP-1-induced cell death, morphology scoring; assay type: cell-based, human; conditions: NT2 cells co-transfected with HIP-1, vs control protein PK, p<0.01
Procedure: HIP-1-induced toxicity was used to assess whether the C-terminus of htt confers protection against a toxic protein-mediated cell death, in addition to its effect on tamoxifen-induced death. NT2 cells were co-transfected with mutant HIP-1 and the C-terminus, or HIP-1 and the control pyruvate kinase cDNA, using lipofectamine (GibcoBRL). Cell death was measured by morphological changes using co-transfection of a plasmid containing the LacZ gene, as described herein. […] Thus, the protective activity of htt C-terminus may have a functional role in HIP-1-mediated cell death in vivo.

Q: Which “anoikis resistant growth in detached state (kinase inhibition study)” value (HBL-100 cells; HBL-100 cells transiently transfected with FLAG-tagged constructs, LY294002 10 μM) does the source give for “S421A: htt with serine 421 replaced by alanine, unphosphorylatable” here?
A: grew poorly in a detached state

Q: And the “anoikis resistance, growth attached or detached” value (HBL-100 cells; transfected HBL-100 cells, 24 hours, poly-HEMA)?
A: behaved similarly to untransfected cells

Q: What about the “phosphorylation signal on huntingtin ablated” value (AKT) of the same substance?
A: 64%

Q: “endogenous htt: murine wild-type htt expressed from the Hdh gene” was tested. Which “effect on degenerative testicular phenotype of YAC72 mice” value (spermatogenic cells) did it give?
A: completely rescued the degenerative testicular phenotype

Q: How did the “phosphorylation detected by autoradiography (in vitro kinase reaction with radiolabelled ATP)” value [1] turn out when purified recombinant active AKT was run?
A: Serine 421 of huntingtin can be phosphorylated by purified recombinant active AKT in vitro

Q: What about the “phosphorylation signal ablated (autoradiography, in vitro kinase reaction)” value [2] of the same substance?
A: 64% of the phosphorylation signal on huntingtin was ablated

Q: With “htt C-terminus: C-terminal fragment of huntingtin, e.g. amino acids 585-3144 of SEQ ID NO: 1, expressed by transfection” as the substance, how does the HD138-dependent cell death (NT2 cells [3]) read?
A: reduced HD138-dependent cell death

Q: And the “number of aggregates formed by truncated mutant htt (1955-128)” value ([4]; aggregates induced by HIP-1 expression)?
A: reduces the number of aggregates

Q: What about the “number of aggregates formed by truncated mutant htt (1955-128)” value ([4]; aggregates induced by tamoxifen stimulus (35 μM, 1 hour)) of the same substance?
A: reduces the number of aggregates

Q: What about the “tamoxifen-induced cell death (mitochondrial viability)” value (HEK 293T cells) of the same substance?
A: protects HEK 293T cells from tamoxifen-induced cell death

Q: And the “HIP-1 mediated cell death” value (NT2 cells [5])?
A: reduced HIP-1 mediated cell death

From patent US20040110676A1, “Methods for modulating cell survival” (priority 2000, published 2004)
